Structures are written as SMILES.

The target in experiment [1] is T1, Adenosine receptor A2a (Homo sapiens, UniProt P29274). Kind of experiment: Antagonist activity at human A2AR expressed in Flp-In-CHO cells assessed as NECA-mediated cAMP accumulation incubated for 30 to 60 mins followed by NECA addition measured after 30 mins by LANCE cAMP assay (reference value: 8.38 +/- 0.03). Type of experiment: functional, cell-based.
The target in experiment [2] is T2, Adenosine receptor A1 (Homo sapiens, UniProt P30542).
T2 sequence (P30542 whole entry): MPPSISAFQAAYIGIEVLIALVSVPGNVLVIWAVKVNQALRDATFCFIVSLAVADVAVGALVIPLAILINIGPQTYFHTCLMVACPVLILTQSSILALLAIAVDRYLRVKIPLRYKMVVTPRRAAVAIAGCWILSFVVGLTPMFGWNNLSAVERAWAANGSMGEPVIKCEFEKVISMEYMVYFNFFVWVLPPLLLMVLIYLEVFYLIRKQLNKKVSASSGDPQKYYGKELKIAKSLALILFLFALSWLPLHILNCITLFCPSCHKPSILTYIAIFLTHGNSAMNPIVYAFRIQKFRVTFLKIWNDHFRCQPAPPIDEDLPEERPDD
Kind of experiment: Antagonist activity at human A1R expressed in Flp-In-CHO cells assessed as NECA-mediated reduction in forskolin-stimulated cAMP accumulation incubated for 30 to 60 mins followed by forskolin/NECA addition measured after 30 mins by LANCE cAMP assay (reference value: 8.74 +/- 0.08). Type of experiment: functional, cell-based. On the technique in general: cAMP levels reflect the balance of adenylyl cyclase and phosphodiesterase activity.

Experiment [3] has as its target T1, Adenosine receptor A2a. The settings on record: Flp-In-CHO, time 60-90 min.
The target in experiment [4] is T3, Adenosine receptor A1 (Homo sapiens) (UniProt P30542).
T3 sequence (whole entry): T2 sequence (P30542 whole entry)
Conditions: Flp-In-CHO, time 60-90 min.

For experiment [5], the target named is T2, Adenosine receptor A1. Kind of experiment: Displacement of [3H]DPCPX from human A1R expressed in Flp-In-CHO cells incubated for 12 hrs by microbeta plate counter analysis. Type of experiment: cell-based. Background: Loss of bound radioactivity is the signal in a displacement assay; it reports binding, not function.

T1 sequence (P29274 whole entry): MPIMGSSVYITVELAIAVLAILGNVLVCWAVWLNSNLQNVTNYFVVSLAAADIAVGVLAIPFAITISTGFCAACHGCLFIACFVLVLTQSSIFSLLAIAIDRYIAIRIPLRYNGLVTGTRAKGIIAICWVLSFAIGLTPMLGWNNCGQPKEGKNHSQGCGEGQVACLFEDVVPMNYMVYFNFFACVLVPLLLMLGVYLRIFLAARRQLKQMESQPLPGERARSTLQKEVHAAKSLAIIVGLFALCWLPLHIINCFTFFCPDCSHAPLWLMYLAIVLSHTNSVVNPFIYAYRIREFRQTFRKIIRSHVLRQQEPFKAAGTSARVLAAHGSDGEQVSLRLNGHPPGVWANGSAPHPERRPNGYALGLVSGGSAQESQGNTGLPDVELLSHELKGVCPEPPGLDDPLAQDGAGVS

A word on the EC50: it is the midpoint of the concentration-response curve. With `O=C(Nc1noc(-c2ccccc2)n1)c1cccc(Cl)c1`, the EC50 in experiment [1] was 10.5 nM; in experiment [2], 2.82 nM.

A word on the pKb: it is the negative decadic logarithm of the Kb, by convention in mol/L. In the case of `Cc1cccc(C(=O)Nc2nc3c(s2)Cc2ccccc2-3)c1C`, the pKb was below 5.5 in experiment [3] and 6.67 in experiment [4] (filed as antagonist).

In experiment [4], `Cc1coc(C(=O)Nc2nc3c(s2)Cc2ccccc2-3)c1C` had a pKb below 5.5.

For the compound `O=C(Nc1nc2c(s1)Cc1ccccc1-2)C1CCCCC1`, the pKb worked out at 7 in experiment [3] (filed as antagonist) and 7.24 in experiment [4] (filed as antagonist).

As to `CC1(C(=O)Nc2nc3c(s2)Cc2ccccc2-3)CCC(=O)CC1`, the values for the pKb in experiment [3] (filed as antagonist) and in experiment [4] (filed as antagonist) were 7.25 and 7.85, respectively.

Take `CC(C)N1CC(C(=O)Nc2nc3ccccc3[nH]2)CC1=O` (stereo unspecified): in experiment [1], the 50% effective concentration (EC50) was 20.4 nM.

For `O=C(Nc1nc2c(s1)Cc1ccccc1-2)C1CCCCCC1`, the values for the pKb in experiment [3] (filed as antagonist) and in experiment [4] (filed as antagonist) were 6.87 and 7.29, respectively.

For `Cc1cccnc1C(=O)Nc1nc2c(s1)Cc1ccccc1-2`, the pKb in experiment [4] was below 5.5.

In turn, `O=C(Nc1nc2c(s1)Cc1ccccc1-2)c1ncn2cc(Cl)ccc12` returned a pKb in experiment [4] below 5.5.

Take `c1csc(-c2nc(NC3CCCCCC3)ncc2-c2ccncc2)c1`: the pKb in experiment [3] (filed as antagonist) is 6.79; in experiment [4] (filed as antagonist) it was 8.1.

In the case of `c1ccc(CNc2nc(N3CCCCC3)c3nccnc3n2)nc1`, the EC50 in experiment [2] was 2.51 nM.

`Cc1c(C(=O)Nc2nc3c(s2)Cc2ccccc2-3)ccc2cncn12`: the negative logarithm of the Kb (pKb) in experiment [3] and in experiment [4] was below 5.5 each time.

Regarding `CC1(CNc2ncc(-c3ccncc3)c(-c3cccs3)n2)OCCO1`, the pKb in experiment [3] was below 5.5; in experiment [4] (filed as antagonist), 6.38.

As for `CCOc1nc(NC(CO)c2ccco2)ncc1Br` (stereo unspecified), the EC50 in experiment [2] is 14.8 nM. For the same compound, the Ki in experiment [5] (read-out: pKi (converted)) was 2450 nM.

As for `CC(=O)NC(CC(=O)Nc1nc(C(C)=O)cs1)c1ccc(C)cc1` (stereo unspecified), the 50% effective concentration (EC50) in experiment [2] is 2.57 nM.

As for `CC(C)(CNc1ncc(-c2ccncc2)c(-c2cccs2)n1)C1CCC1`, the values for the pKb in experiment [3] (filed as antagonist) and in experiment [4] (filed as antagonist) were 6.09 and 7.15, respectively.

For the compound `O=C(Nc1nc2ccccc2s1)N(CCO)C1CC1`, the EC50 in experiment [1] is 6.03 nM; in experiment [2] it was 3.63 nM.

For the compound `O=C(Nc1nc2c(s1)Cc1ccccc1-2)C12CC3CC(CC1C3)C2`, the pKb came out at 6.3 in experiment [3] (filed as antagonist) and 7.57 in experiment [4] (filed as antagonist). Also, in experiment [5] (read-out: Ki), the Ki was 72 nM.

For the compound `c1csc(-c2nc(NC3CCC4(CC3)OCCO4)ncc2-c2ccncc2)c1`, the results for the pKb in experiment [3] (filed as antagonist) and in experiment [4] (filed as antagonist) were 6.53 and 7.07, respectively.

Turning to `O=C(Nc1nc(C2CC2)cs1)C1COc2ccccc2C1` (stereo unspecified), the EC50 in experiment [2] was 3.24 nM.

For the compound `Cc1ccc2nc(C(=O)Nc3cnc4n3CCCC4)cn2c1`, the EC50 in experiment [1] was 4.57 nM.

As for `CCC1CCC(C(=O)Nc2nc3c(s2)Cc2ccccc2-3)CC1` (stereo unspecified), the pKb in experiment [3] and in experiment [4] was below 5.5 throughout.

Consider `COc1ccc(C(=O)Nc2nc(C)c3cc4c(cc3n2)OCO4)cc1`, for which the EC50 in experiment [2] was 1.91 nM.

As to `CC1(C(=O)Nc2nc3c(s2)Cc2ccccc2-3)CCCC1`, the pKb in experiment [3] (filed as antagonist) was 7.4; in experiment [4] (filed as antagonist), 7.86.

Regarding `Cn1c(=O)c2[nH]c(N(CCO)CCO)nc2n(C)c1=O`, the figures for the EC50 in experiment [1] and in experiment [2] were 6.92 nM and 17 nM, respectively. Besides, the Ki in experiment [5] (read-out: pKi (converted)) is 2820 nM.

For the compound `CC(=O)N1CCC(Nc2ncc(-c3ccncc3)c(-c3cccs3)n2)CC1`, the pKb in experiment [3] (filed as antagonist) was 6.57; in experiment [4] (filed as antagonist), 7.82.

`CC(Sc1nnc(C(C)C)[nH]1)C(=O)c1ccccc1` (stereo unspecified): the EC50 in experiment [2] is 3.31 nM.

Turning to `C=C1CCC(C(=O)Nc2nc3c(s2)Cc2ccccc2-3)CC1`, the negative-log Kb (pKb) was found to be 7.03 in experiment [3] (filed as antagonist) and 7.7 in experiment [4] (filed as antagonist).

Consider `O=C(CC1CCCC1)N1CCc2c(nc(N3CCCC3)[nH]c2=O)C1`, for which, in experiment [1], the EC50 was 4.47 nM.

As for `COC1(OC)CC(C)(C(=O)Nc2nc3c(s2)Cc2ccccc2-3)C1`, the negative logarithm of the Kb (pKb) in experiment [3] (filed as antagonist) was 7.25; in experiment [4] (filed as antagonist), 6.7.

Consider `COCC(O)CNc1ncc(C)c(-c2ncnn2C)n1` (stereo unspecified), for which the EC50 was 4.57 nM in experiment [1] and 2.34 nM in experiment [2].

Consider `Cc1nnsc1C(=O)Nc1nc2c(s1)Cc1ccccc1-2`, for which the EC50 in experiment [1] is 63.1 nM.

Turning to `CC1(CNc2ncc(-c3ccncc3)c(-c3cccs3)n2)COC1`, the pKb in experiment [3] and in experiment [4] was below 5.5 throughout.

(Values after ChEMBL document CHEMBL5335785, “Structure-based virtual screening discovers potent and selective adenosine A1 receptor antagonists” (Eur J Med Chem, 2023).)
